Here are results for 26 compounds from patent US7109193B2, “Tricyclic diazepines tocolytic oxytocin receptor antagonists” (Wyeth, priority 2001, dated 2006).

In the assay the target is T1, human vasopressin V1a receptor subtype (Homo sapiens, UniProt P37288).
T1 construct: host or cells: CHO cells (pZeoSV vector for the Thibonnier line)
As to the kind of experiment: Vasopressin binding in Chinese Hamster Ovary cell membranes expressing human vasopressin V1a subtype receptors. The note with it: CHO cell membranes, [3H]Manning ligand; for pIC50: values in parentheses; for inhibition at 0.1 µM: 100 nM, values without parentheses. The essentials: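 Displacement of [3H]Manning ligand (8 nM working solution) from human V1a receptors in CHO cell membranes, 25–50 μg protein per well. Incubation ran 60 min at room temperature in 50 mM Tris-HCl pH 7.4 with protease inhibitors, followed by filtration and scintillation counting. Results are given as IC50 or percent inhibition.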

pIC50: −log10 of the molar value. Counter-ions that a name gives are not always drawn. Where only a bound is given, the exact number is not on record here.

As usually defined, the pIC50 is the IC50 on a negative log10 scale, so that one unit is a factor of ten. The term inhibition denotes the drop in the measured response relative to a control, in per cent.

T1 sequence (P37288 whole entry): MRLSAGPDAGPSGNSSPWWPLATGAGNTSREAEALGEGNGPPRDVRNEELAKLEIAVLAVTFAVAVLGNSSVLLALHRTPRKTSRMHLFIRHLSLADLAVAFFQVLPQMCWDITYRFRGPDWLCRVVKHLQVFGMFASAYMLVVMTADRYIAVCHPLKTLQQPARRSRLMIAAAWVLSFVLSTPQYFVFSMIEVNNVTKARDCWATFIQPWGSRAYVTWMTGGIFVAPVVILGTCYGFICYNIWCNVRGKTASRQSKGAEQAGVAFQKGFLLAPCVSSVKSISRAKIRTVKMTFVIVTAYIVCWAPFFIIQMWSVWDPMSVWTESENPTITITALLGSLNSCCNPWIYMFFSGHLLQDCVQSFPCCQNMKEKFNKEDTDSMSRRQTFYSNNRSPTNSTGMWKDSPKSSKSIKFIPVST

As to `Cc1cc(C(=O)N2Cc3ccc(C(=O)N4CCN(C)CC4)n3Cc3ccccc32)ccc1-c1ccccc1C(F)(F)F` [Example 2, (4-Methyl-piperazin-1-yl)-[10-(2-methyl-2′-trifluoromethyl-[1,1′-biphenyl]-4-yl)-carbonyl]-10,11-dihydro-5H-pyrrolo[2,1-c][1,4]benzodiazepin-3-yl-methanone], the negative logarithm of the IC50 (pIC50) is 5.57.
Take `Cc1cc(C(=O)N2Cc3ccc(C(=O)N4CCN(CCCN(C)C)CC4)n3Cc3ccccc32)ccc1-c1ccccc1C(F)(F)F` [Example 4, [4-(3-Dimethylaminopropyl)-piperazin-1-yl]-[10-(2-methyl-2′-trifluoromethyl-[1,1′-biphenyl]-4-yl)carbonyl]-[10,11-dihydro-5H-pyrrolo[2,1-c][1,4]benzodiazepin-3-yl]-methanone]: the inhibition at 0.1 µM was 14%.
In the case of `Cc1cc(C(=O)N2Cc3ccc(C(=O)N4CCNCC4)n3Cc3ccccc32)ccc1-c1ccccc1C(F)(F)F` [Example 7, 10,11-Dihydro-10-[[2-methyl-2′-trifluoromethyl-[1,1′-biphenyl]-4-yl]carbonyl]-3-(1-piperazinylcarbonyl)-5H-pyrrolo[2,1-c][1,4]benzodiazepine hydrochloride salt], the pIC50 was 5.61.
As to `Cc1cc(C(=O)N2Cc3ccc(C(=O)NC(=N)N)n3Cc3ccccc32)ccc1-c1ccccc1C(F)(F)F` [Example 8, N-[(10-{[2-methyl-2′-(trifluoromethyl)[1,1′-biphenyl]-4-yl]carbonyl}-10,11-dihydro-5H-pyrrolo[2,1-c][1,4]benzodiazepin-3-yl)carbonyl]guanidine], the pIC50 is 5.86.
As to `COc1cc(-c2ccccc2C)ccc1C(=O)N1Cc2ccc(C(=O)N(C)CCCN(C)C)n2Cc2ccccc21` [Example 11, N-Methyl-N-[3-(dimethylamino)propyl]-10-[(3-methoxy-2′-methyl[1,1′-biphenyl]-4-yl)carbonyl]-10,11-dihydro-5H-pyrrolo[2,1-c][1,4]benzodiazepine-3-carboxamide], the pIC50 was 7.15.
As to `COc1cc(-c2ccccc2F)c(Cl)cc1C(=O)N1Cc2cccn2Cc2ccccc21` [Example 18B, 10-{[6-Chloro-3-methoxy-2′-fluoro-[1,1′-biphenyl]-4-yl]carbonyl}-10,11-dihydro-5H-pyrrolo[2,1-c][1,4]benzodiazepine], the pIC50 was 6.41.
With `COc1cc(C(=O)N2Cc3ccc(C(=O)N4CCC[C@H]4CN4CCCC4)n3Cc3ccccc32)ccc1-c1ccccc1C(F)(F)F` [Example 20, {[10-(2-Methoxy)-2′-trifluoromethyl-[1,1′-biphenyl]-4-yl]carbonyl}-[(2S)-[(2-pyrrolidin-1-yl)methyl]pyrrolidin-1-yl]-10,11-dihydro-5H-pyrrolo[2,1-c][1,4]benzodiazepin-3-yl-methanone], the pIC50 is 6.14.
`COc1cc(C(=O)N2Cc3ccc(C(=O)N(C)CCCN(C)C)n3Cc3ccccc32)ccc1-c1ccccc1C(F)(F)F` [Example 21, N-Methyl-[N-(3-dimethylamino)propyl]-10-{[2-methoxy-2′-trifluoromethyl-[1,1′-biphenyl]-4-yl]carbonyl}-10,11-dihydro-5H-pyrrolo[2,1-c][1,4]benzodiazepin-3-carboxamide]: the pIC50 was 6.42.
Take `COc1cc(C(=O)N2Cc3ccc(C(=O)N(C)CCN(C)C)n3Cc3ccccc32)ccc1-c1ccccc1C(F)(F)F` [Example 22, N-Methyl-[N-(2-dimethylamino)ethyl]-10-{[2-methoxy-2′-trifluoromethyl-[1,1′-biphenyl]-4-yl]carbonyl}-10,11-dihydro-5H-pyrrolo[2,1-c][1,4]benzodiazepine-3-carboxamide]: the negative logarithm of the IC50 (pIC50) is 6.65.
With `O=C(c1ccc(-c2cccc3ccccc23)cc1Cl)N1Cc2cccn2Cc2ccccc21` [Example 24, [2-Chloro-4-(naphthalen-1-yl)phenyl][10,11-dihydro-5H-pyrrolo[2,1-c][1,4]benzodiazepin-10-yl]methanone], the pIC50 is 7.65.
The same measure, in the same setting: the result for `Cc1ccc(-c2ccc(C(=O)N3Cc4cccn4Cc4ccccc43)cc2)c2ccccc12` [Example 25, [4-(4-Methyl-naphthalen-1-yl)phenyl][10,11-dihydro-5H-pyrrolo[2,1-c][1,4]benzodiazepin-10-yl]methanone] reads 6.88; that for `COc1cc(C(=O)N2Cc3cccn3Cc3ccccc32)ccc1-n1c(C)ccc1C` [Example 27, [4-(2,5-Dimethyl-1-H-pyrrol-1-yl)-3-methoxy-phenyl][10,11-dihydro-5H-pyrrolo[2,1-c][1,4]benzodiazepin-10-yl]methanone], 7.34; that for `O=C(c1ccc(-c2cccc3ccccc23)nc1)N1Cc2cccn2Cc2ccccc21` [Example 28, [6-(Naphthalen-1-yl)-pyridin-3-yl]-[10,11-dihydro-5H-pyrrolo[2,1-c][1,4]benzodiazepin-10-yl]methanone], 7.18.
On the same count and under the same terms, to `COc1cc(-c2ccccc2C(F)(F)F)c(OC)cc1C(=O)N1Cc2cccn2Cc2ccccc21` [Example 32, 10-{[3,6-Dimethoxy-2′-trifluoromethyl-[1,1′-biphenyl]-4-yl]carbonyl}-10,11-dihydro-5H-pyrrolo[2,1-c][1,4]benzodiazepine] belongs under 5.52; to `COc1cc(-c2ccccc2Cl)c(Cl)cc1C(=O)N1Cc2ccc(C(=O)N(C)C3CCN(C)CC3)n2Cc2ccccc21` [Example 43, 10-[(2′-Chloro-6-chloro-3-methoxy-[1,1′-biphenyl]-4-yl)carbonyl]-N-methyl-N-(1-methylpiperidin-4-yl)-10,11-dihydro-5H-pyrrolo[2,1-c][1,4]benzodiazepine-3-carboxamide], 6.51; to `COc1cc(-c2ccccc2C)c(Cl)cc1C(=O)N1Cc2ccc(C(=O)N3CCN(C)CC3)n2Cc2ccccc21` [Example 47, {10-[(6-Chloro-3-methoxy-2′-methyl[1,1′-biphenyl]-4-yl)carbonyl]-10,11-dihydro-5H-pyrrolo[2,1-c][1,4]benzodiazepin-3-yl}(4-methyl-1-piperazinyl)methanone], 6.00.
The same measure, in the same setting: the result for `COc1ccccc1-c1ccc(C(=O)N2Cc3ccc(C(=O)N4CCN(C)CC4)n3Cc3ccccc32)cc1` [Example 48, {10-[(2′-Methoxy[1,1′-biphenyl]-4-yl)carbonyl]-10,11-dihydro-5H-pyrrolo[2,1-c][1,4]benzodiazepin-3-yl}(4-methyl-1-piperazinyl)methanone] reads 6.32.
As for `Cc1cc(C(=O)N2Cc3ccc(C(=O)N4CCCN(C)CC4)n3Cc3ccccc32)ccc1-c1ccccc1C(F)(F)F` [Example 59, (4-Methyl-1,4-diazepan-1-yl)(10-{[2-methyl-2′-(trifluoromethyl)[1,1′-biphenyl]-4-yl]carbonyl}-10,11-dihydro-5H-pyrrolo[2,1-c][1,4]benzodiazepin-3-yl)methanone], the pIC50 is 5.72.
On to `COc1cc(-c2ccccc2C)c(Cl)cc1C(=O)N1Cc2ccc(C(=O)N3CCCN(C)CC3)n2Cc2ccccc21` [Example 60, {10-[(6-Chloro-3-methoxy-2′-methyl[1,1′-biphenyl]-4-yl)carbonyl]-10,11-dihydro-5H-pyrrolo[2,1-c][1,4]benzodiazepin-3-yl}(4-methyl-1,4-diazepan-1-yl)methanone], for which the pIC50 is 6.17.
On the same count and under the same terms, to `COc1ccccc1-c1ccc(C(=O)N2Cc3ccc(C(=O)N4CCCN(C)CC4)n3Cc3ccccc32)cc1` [Example 61, {10-[(2′-Methoxy[1,1′-biphenyl]-4-yl)carbonyl]-10,11-dihydro-5H-pyrrolo[2,1-c][1,4]benzodiazepin-3-yl}(4-methyl-1,4-diazepan-1-yl)methanone] belongs 6.50.
With `COc1cccc(-c2cc(OC)c(C(=O)N3Cc4ccc(C(=O)NCCCN(C)C)n4Cc4ccccc43)cc2Cl)c1` [Example 79, 10-[(6-Chloro-3,3′-dimethoxy[1,1′-biphenyl]-4-yl)carbonyl]-N-[3-(dimethylamino)propyl]-10,11-dihydro-5H-pyrrolo[2,1-c][1,4]benzodiazepine-3-carboxamide], the inhibition at 0.1 µM was 0%.
Consider `COc1cc(C(=O)N2Cc3ccc(C(=O)NCCCN(C)C)n3Cc3ccccc32)ccc1-c1cccc2ccccc12` [Example 80, N-[3-(Dimethylamino)propyl]-10-[3-methoxy-4-(1-naphthyl)benzoyl]-10,11-dihydro-5H-pyrrolo[2,1-c][1,4]benzodiazepine-3-carboxamide], for which the inhibition at 0.1 µM came to 16%.
For the compound `COc1ccccc1-c1ccc(C(=O)N2Cc3ccc(C(=O)NCCCN(C)C)n3Cc3ccccc32)cc1OC` [Example 81, 10-[(2,2′-Dimethoxy[1,1′-biphenyl]-4-yl)carbonyl]-N-[3-(dimethylamino)propyl]-10,11-dihydro-5H-pyrrolo[2,1-c][1,4]benzodiazepine-3-carboxamide], the inhibition at 0.1 µM was 4%.
`COc1cccc(-c2ccc(C(=O)N3Cc4ccc(C(=O)NCCCN(C)C)n4Cc4ccccc43)cc2OC)c1` [Example 82, 10-[(2,3′-Dimethoxy[1,1′-biphenyl]-4-yl)carbonyl]-N-[3-(dimethylamino)propyl]-10,11-dihydro-5H-pyrrolo[2,1-c][1,4]benzodiazepine-3-carboxamide]: the inhibition at 0.1 µM was found to be 37%.
As to `CN(C)CCCNC(=O)c1ccc2n1Cc1ccccc1N(C(=O)c1ccc(-c3cccc4ccccc34)cc1Cl)C2` [Example 83, 10-[2-Chloro-4-(1-naphthyl)benzoyl]-N-[3-(dimethylamino)propyl]-10,11-dihydro-5H-pyrrolo[2,1-c][1,4]benzodiazepine-3-carboxamide], the inhibition at 0.1 µM came out at 8%.
`Cc1cc(C(=O)N2Cc3ccc(C(=O)N(C)CCN(C)C)n3Cc3ccccc32)ccc1-c1ccccc1C(F)(F)F` [Example 85, N-[2-(Dimethylamino)ethyl]-N-methyl-10-{[2-methyl-2′-(trifluoromethyl)[1,1′-biphenyl]-4-yl]carbonyl}-10,11-dihydro-5H-pyrrolo[2,1-c][1,4]benzodiazepine-3-carboxamide]: the pIC50 was 6.10.
